Test results reported in patent US10429393B2, “Tumor deconstruction platform for the analysis of intra-tumor heterogeneity” (NATIONAL CENTRE FOR CELL SCIENCE, priority 2014, dated 2019).

Legend:
[1] = tested on: A4 serous ovarian adenocarcinoma xenografts; assay: Flow cytometric resolution of residual tumour composition (proliferative hierarchy, ploidy, cell cycle; 18 fractions) after therapy; type: in vivo, mice; conditions: for drug sensitive tumour populations (cell targets): individual treatments, grid of FIG. 9
Description: FIG. 8 represents data discussed in Example 3. a. Schematic of paclitaxel administration regime; b. Frequency (±SEM) of tumor fractions based on proliferative hierarchy, ploidy and cell cycle analysis in control and paclitaxel treated where populations 1-18 are as depicted in FIG. 6b, inset indicates frequency of cycling CSCs, 18a-PKH^hi Eu G0, 18b-PKH^hi Eu G1,18c-PKH^hi Eu S, 18d-PKH^hi Eu G2/M, 18e-PKW^hi Aneu G0, 18f-PKH^hi Aneu G1, 18g-PKH^hiAneu S, 18h-PKW^hi Aneu G2/M;*−P<0.05; **−P<0.001; ***−P<0.0001.
FIG. 9 represents the efficacy of various drug regimes through resolution of residual tumor composition after therapy in comparison with a naïve (untreated) tumor for following drug regimes—Pac ST (paclitaxel short-term: 3 doses—48 h intervals—1 week recovery), Pac LT (paclitaxel long-term, 2 cycles of ST regime); Gem ST (gemcitabine short-term, 3 doses—36 h intervals—36 h recovery), Gem LT (gemcitabine long-term, 5 doses—36 h intervals—36 h recovery); 5AzadC (3 doses—48 h intervals—1 week recovery); mAbX (6 doses of an uncharacterised antibody developed in the Bapat lab—48 h intervals—48 h recovery); Gem+mAbX ST combination therapy (3 doses of each drug—48 h intervals—48 h recovery), Gem+mAbX LT combination therapy (2 cycles each comprising of 3 doses of each drug—48 h intervals—1 week recovery); triple drug combination of gemcitabine, mAbX and 5AzadC LT (6 therapeutic cycles, each comprising of 3 doses of each drug at 48 h intervals and 1 week recovery); populations 1-18 and 18a-18h are as defined in FIGS. 6b and 8 respectively.
Standard techniques are used in the process that is illustrative rather than limiting; other common methods are acceptable in the practice of this invention. Tumor tissues were rinsed several times with phosphate buffered saline (PBS) containing antibiotic and/or anti-fungal agents, finely minced and suspended in basal media supplemented with cell dissociation agent(s) with intermittent pipetting to loosen cell aggregates. Various combinations of dissociation agents can be used depending on the tumor type and appearance and including but not being limited to EDTA, EGTA, cocktails of enzymes including trypsin, dispases, collagenases, DNAse, and the like. On dispersion of tumor cell aggregates, enzymatic activity is usually terminated by addition of serum, cells pelleted by centrifugation and washed several times with basal medium and filtered through cell strainers to obtain a single cell suspension. Cell lines are harvested as per established guidelines to obtain a single cell suspension. […] Labeled cells are xenografted in immunocompromised mice, which could be either nude, SCID, Beige/SCID, NOD/SCID, Rag-/Rag-, humanised mice models, or any known experimental xenograft animal model. Control tumors were concurrently generated using unlabeled cells. Xenografts were harvested as per animal experimental protocols and digested to generate single cell suspension from which the different sub-populations were resolved through flow cytometry.
Basic cell parameters FSC and SSC were adjusted with ND filter 1.5/2 with appropriate FSC and SSC thresholds. Cell debris was eliminated based on low FSC—low SSC, doublets using Area—width parameters and RBCs based on nuclear Propidium iodide (PI) staining. PI excitation/emission maxima are at 535/617 nm (PE channel of blue laser used for analysis). Freshly labeled cells are used to set the gates for VMF^hi cells, while TDSCS from unlabeled tumors was used in order to set the gates for VMF^neg cells. Other fluorophores including Hoechst (UV laser), Pyronin Y (PE channel of blue laser), APC (red laser) and others can be incorporated into this scheme based on their compatibility and resolution capabilities of the flow equipment used for data acquisition and/or sorting as per experimental requirements.
G0/G1, S and G2/M (as illustrated in FIG. 3) provides information regarding the proliferative capability of a tumor. […]

[2] = tested on: A4 serous ovarian adenocarcinoma xenografts; assay: Tumour volume of A4 xenografts after drug regime; type: in vivo, mice; conditions: paclitaxel i.p. 25 mg/kg body weight; at the end of the regime
[3] = paclitaxel treated vs control, FIG. 8b

Compound	drug sensitive tumour populations (cell targets) [1]	reduction in tumor volumes [2] [%]	CSC re-entry into the cell cycle (cycling populations within PKH^hi fraction) ([1]; after therapy vs naive tumor, FIG. 8b inset, FIG. 9)	frequency of aneuploid progenitor cells ([1]; following paclitaxel treatment vs control)	PKH^hi (CSC) fraction [1, 3]	PKH^neg fraction [1, 3]
Nc1ncn([C@H]2C[C@H](O)[C@@H](CO)O2)c(=O)n1 [5 AzadC, 5AzadC]	effective against aneuploid fractions	–	–	–	–	–
CC(=O)O[C@H]1C(=O)[C@@]2(C)[C@H]([C@H](OC(=O)c3ccccc3)[C@]3(O)C[C@H](OC(=O)[C@H](O)[C@@H](NC(=O)c4ccccc4)c4ccccc4)C(C)=C1C3(C)C)[C@]1(OC(C)=O)CO[C@@H]1C[C@@H]2O [paclitaxel]	–	50	presence of cycling populations that have undergone less than 3-4 doublings within the PKH^hi fraction	Increased frequency of aneuploid progenitor cells	enhanced PKH^hi (CSC) fraction	decreased PKH^neg fraction
Nc1ccn([C@@H]2O[C@H](CO)[C@@H](O)C2(F)F)c(=O)n1 [gemcitabine]	effective in short-term sensitization of all populations within the PKH^neg fraction	–	–	–	–	–
